Laboratory results reported in patent US11155586B2, “Cystine knot scaffold platform” (Genentech, Inc., priority 2015, dated 2021).
Positions of bridges follow the written chain, without caps; N, C: chain ends. Residues, ends and D or L forms follow the SMILES beside them.

Columns and labels:
[1] = tested on: trypsin; test: Trypsin protease activity, peptide substrate cleavage assay; assay type: biochemical; conditions: FIG. 3
[2] = molecular target: T1, hVEGF-A (Homo sapiens, UniProt P15692); test: KDR-CHO VEGF assay to determine cellular IC50 (VEGF mediated Tyr phosphorylation of KDR); assay type: cell-based; conditions: Table 36, from cellular IC50
T1 sequence (P15692 207-395): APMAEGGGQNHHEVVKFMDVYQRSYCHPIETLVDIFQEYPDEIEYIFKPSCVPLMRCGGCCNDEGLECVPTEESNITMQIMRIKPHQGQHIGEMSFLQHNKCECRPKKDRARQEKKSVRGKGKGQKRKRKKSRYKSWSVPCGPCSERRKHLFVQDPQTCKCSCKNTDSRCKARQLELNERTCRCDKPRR

[3] = molecular target: hVEGF-A mutants (Y21A, K48A, Q89A, F17A/M81A); test: SPR binding assay, hVEGF-A mutants; set-up: species or system human; kd: unit not given here
Method: Depending on the format of the assay either a streptavidin sensor (SA) or a dextran-coated (CM5) sensor was utilized as described below.
For use with the SA sensor, VEGF-A was first biotinylated (no more than 2 biotin/VEGF-A) by incubating the protein with EZ-link NHS-PEG4-Biotin (Pierce) in a 1:1.5 molar ratio respectively, in PBS for 2 hours on ice. Reaction was then quenched by addition of 10 molar excess of Glycine pH 8.0 and the sample was buffer exchanged into PBS using an Amicon 0.5 mL 3000 MWCO ultra-centrifugal filters (EMD Millipore). The biotinylation state of the protein was verified by LC-MS analysis. Biotinylated VEGF-A was then captured on the surface until a resonance unit (RU) signal of about ˜400. For immobilization of VEGF-A on CM5 sensor, the surface was first activated with a mixture of N-ethyl-N′-(3-dimethylaminopropyl)carbodiimide hydrochloride and N-hydroxysuccinimide (EDC/NHS) according to the supplier instructions. VEGF-A was then diluted into coupling buffer (0.1 M Acetate Buffer, pH 5.0) and injected until the signal reached about ˜400 RU followed by a wash with 1 M ethanolamine pH 8.0 to quench remaining activated sites.
Following the capture step, a series of the peptide concentrations were prepared in HBS-EP buffer with matching DMSO concentrations to 0.1% and injected at a flow rate of […]. The resulting sensorgrams were then analyzed using a 1:1 binding model to obtain kinetic data and affinities using Scrubber 2.0 (BioLogic Software).
The binding interface of VEGF_CKP9.54.90 on VEGF-A overlaps with that of the natural receptors and G6.31 antibody (FIGS. 7 and 8). […] However, K48A mutation enhanced the binding of VEGF_CKP9.54.90 by ˜2-3 fold, a behavior that is similar to that observed with the G6.31 antibody (Fuh et al. (2006) J. Biol. Chem. 281, 6625-6631).

[4] = molecular target: T2, hVEGF(8-109) (Homo sapiens, UniProt P15692); test: Spot phage ELISA; assay type: binding; conditions: Table 27
T2 construct: hVEGF(8-109) or BSA were coated on 384-well MAXISORP™ immunoplates
T2 sequence (P15692 214-315): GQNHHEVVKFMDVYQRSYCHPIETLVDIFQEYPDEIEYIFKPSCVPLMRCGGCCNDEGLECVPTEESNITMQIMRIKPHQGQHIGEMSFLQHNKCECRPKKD
Procedure, shortened: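 Clones counted positive when hVEGF(8-109) signal exceeded BSA background by over 3-fold, per spot ELISA using anti-M13-HRP/TMB detection. Phage came from overnight 37° C. cultures of individual clones picked after four binding rounds, supernatant diluted 1:3.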

For CC[C@H](C)[C@@H]1NC(=O)[C@H](CC(=O)O)NC(=O)[C@@H]2CCCN2C(=O)CNC(=O)[C@@H]2CSSC[C@H](NC(=O)[C@H](CC(=O)O)NC1=O)C(=O)N[C@@H](CC(C)C)C(=O)N[C@@H](C)C(=O)NCC(=O)N[C@H](C(=O)N[C@H](C(=O)N[C@H]1CSSC[C@@H](C(=O)NCC(=O)O)NC(=O)[C@H](CO)NC(=O)[C@H](CC(N)=O)NC(=O)[C@H](Cc3ccc(O)cc3)NC(=O)[C@H](Cc3c[nH]c4ccccc34)NC(=O)[C@H](Cc3c[nH]cn3)NC1=O)C(C)C)CSSC[C@H](NC(=O)CN)C(=O)N[C@@H](CC(=O)O)C(=O)N[C@@H](C(C)C)C(=O)N[C@@H](CCSC)C(=O)N[C@@H](CCC(N)=O)C(=O)N1CCC[C@H]1C(=O)N[C@@H](Cc1ccc(O)cc1)C(=O)N[C@@H](Cc1c[nH]c3ccccc13)C(=O)NCC(=O)N2 [VEGF_CKP9.63.12] (H-GCDVMQPYWGCGPDIDCLAGCVCHWYNSCG-OH; disulfide 2-21, 11-17, 23-29 (inferred); N-terminus and C-terminus assumed), the “inhibition of trypsin protease activity” value [1] was “do not inhibit”, the “FOLD IMPROVEMENT RELATIVE TO VARIANT 9.54.90” value [2] was 0.74 and the Kd ([3]; hVEGF-A mutant K48A) was 0.33 nM. For the same compound, the ka ([3]; hVEGF-A mutant K48A) was 5.30 × 10^7, the kd ([3]; hVEGF-A mutant K48A) was 0.017 and the Kd ([3]; hVEGF-A mutant Q89A) was 36.5 nM. For the same compound, the ka ([3]; hVEGF-A mutant Q89A) was 7.43 × 10^6, the kd ([3]; hVEGF-A mutant Q89A) was 0.47 and the Kd ([3]; hVEGF-A mutant Y21A) was 9.84 nM. The ka ([3]; hVEGF-A mutant Y21A) was 1.99 × 10^7, the kd ([3]; hVEGF-A mutant Y21A) was 1.48 × 10^−1 and the “S/N (signal to noise ratio as compared to BSA control)” value [4] was 39.9. For the same compound, the ELISA ([4]; loop 2 variants based on VEGF_CKP9.63 framework) was 2.6.
